Reference: ChEMBL document CHEMBL1133131, “Discovery of an orally bioavailable alkyl oxadiazole beta3 adrenergic receptor agonist” (Bioorg Med Chem Lett, 2000)
The source made the active and inactive calls. The rule behind the calls is not given here.

Legend:
[1] = target: T1, Beta-3 adrenergic receptor (Homo sapiens, UniProt P13945); assay: Adenylyl cyclase activation as percent maximal isoproterenol stimulation of CHO cells expressing beta-3 receptor; type: functional, cell-based
Target sequence in this assay (P13945 whole entry, looked up): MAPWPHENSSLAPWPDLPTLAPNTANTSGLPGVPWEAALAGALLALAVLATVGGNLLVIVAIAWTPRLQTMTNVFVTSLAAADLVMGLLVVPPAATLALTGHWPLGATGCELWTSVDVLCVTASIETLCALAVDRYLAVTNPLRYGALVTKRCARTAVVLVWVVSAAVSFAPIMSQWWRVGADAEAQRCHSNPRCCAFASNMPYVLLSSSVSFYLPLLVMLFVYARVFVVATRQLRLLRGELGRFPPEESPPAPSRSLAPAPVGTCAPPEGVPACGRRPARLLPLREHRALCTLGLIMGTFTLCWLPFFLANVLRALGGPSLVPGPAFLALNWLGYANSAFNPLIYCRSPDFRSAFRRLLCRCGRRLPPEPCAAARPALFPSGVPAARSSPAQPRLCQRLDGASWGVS

[2] = target: Beta-1 adrenergic receptor (Homo sapiens, UniProt P08588); assay: Binding affinity towards cloned human Beta-1 adrenergic receptor prepared from CHO cells in the presence of [125I]iodocyanopindolol; type: cell-based
[3] = target: Beta-2 adrenergic receptor (Homo sapiens, UniProt P07550); assay: Binding affinity towards Beta-2 adrenergic receptor prepared from CHO cells expressing the cloned human receptor in the presence of [125I]iodocyanopindolol; type: cell-based
[4] = target: T1, Beta-3 adrenergic receptor; assay: Agonist activity as increasedn cAMP production in Chinese hamster ovary (CHO)cells expressing human beta-3 adrenergic receptor; type: functional
Target sequence in this assay (P13945 whole entry): as the sequence (P13945 whole entry, looked up) above

[5] = Half life in dog; type: ADME, organism-based, Canis lupus familiaris; conditions: in vivo
[6] = Oral bioavailability of intravenously administered compound (3 mg/kg) was tested in rats; type: ADME, organism-based; conditions: rat, in vivo, intravenous
Monkey [7] = assay: The compound was evaluated for dose- dependent elevation of plasma glycerol in anesthetized rhesus; type: functional; conditions: Cercopithecidae, in Macaca mulatta
[8] = Oral bioavailability of perorally administered compound (10 mg/kg) was tested in dogs; type: ADME, organism-based, Canis lupus familiaris; conditions: dog, in vivo
Monkey [9] = assay: The compound was tested for the percent increase in heart rate at the dose level of 10 mg/kg; No significant alteration; type: functional, organism-based; design: dose 10 mg/kg; conditions: Cercopithecidae
[10] = Half life in rats; type: ADME, organism-based; conditions: rat, in vivo

Beta-1 adrenergic receptor, sequence (P08588 whole entry): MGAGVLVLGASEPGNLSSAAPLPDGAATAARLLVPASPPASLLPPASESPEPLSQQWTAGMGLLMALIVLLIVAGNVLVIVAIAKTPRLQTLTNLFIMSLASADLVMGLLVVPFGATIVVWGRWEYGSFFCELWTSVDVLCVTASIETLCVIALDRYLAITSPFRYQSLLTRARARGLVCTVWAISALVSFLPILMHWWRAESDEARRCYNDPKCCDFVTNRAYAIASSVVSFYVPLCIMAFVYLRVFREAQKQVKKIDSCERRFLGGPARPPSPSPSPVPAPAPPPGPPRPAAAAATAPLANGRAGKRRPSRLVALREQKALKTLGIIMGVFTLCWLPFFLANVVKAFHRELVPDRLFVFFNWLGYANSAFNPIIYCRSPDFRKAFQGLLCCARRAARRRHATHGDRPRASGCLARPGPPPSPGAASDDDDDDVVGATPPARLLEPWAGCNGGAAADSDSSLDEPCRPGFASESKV
Beta-2 adrenergic receptor, sequence (P07550 whole entry): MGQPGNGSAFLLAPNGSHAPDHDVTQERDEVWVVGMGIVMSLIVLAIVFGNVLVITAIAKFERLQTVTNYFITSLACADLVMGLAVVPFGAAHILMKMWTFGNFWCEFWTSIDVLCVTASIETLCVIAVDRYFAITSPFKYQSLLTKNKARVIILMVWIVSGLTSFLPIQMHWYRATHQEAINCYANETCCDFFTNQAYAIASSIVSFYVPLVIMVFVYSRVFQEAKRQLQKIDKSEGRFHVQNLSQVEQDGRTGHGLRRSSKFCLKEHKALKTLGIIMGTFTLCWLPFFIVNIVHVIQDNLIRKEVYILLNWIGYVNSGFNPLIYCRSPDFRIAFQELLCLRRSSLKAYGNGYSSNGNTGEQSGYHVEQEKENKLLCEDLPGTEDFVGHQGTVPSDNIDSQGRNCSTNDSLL

Compound	Activation [1] [%]	IC50 [2] [nM]	IC50 [3] [nM]	EC50 [4] [nM]	half-life [5] [h]	bioavailability [6] [%]	bioavailability [8] [%]	half-life [10] [h]	ED50 (Monkey [7]) [mg/kg]	Activity (Monkey [9])
CC(=O)CCCc1nc(-c2ccc(S(=O)(=O)Nc3ccc(CCNC[C@H](O)c4cccnc4)cc3)cc2)no1	69	70000	57000	130	–	–	–	–	–	–
O=S(=O)(Nc1ccc(CCNC[C@H](O)c2cccnc2)cc1)c1ccc(-c2noc(CCCC3CCCC3)n2)cc1	83	5500	962	15	–	–	–	–	–	–
CCCCCc1nc(-c2ccc(S(=O)(=O)Nc3ccc(CCNC[C@H](O)c4cccnc4)cc3)cc2)no1	53	5500	3000	23	3.6	36	62	2.4	0.22	inactive
CCCCc1nc(-c2ccc(S(=O)(=O)Nc3ccc(CCNC[C@H](O)c4cccnc4)cc3)cc2)no1	86	55000	6500	32	–	–	–	–	–	–
CCCc1nc(-c2ccc(S(=O)(=O)Nc3ccc(CCNC[C@H](O)c4cccnc4)cc3)cc2)no1	70	8500	8500	87	–	–	–	–	–	–
CCCCCCCCc1nc(-c2ccc(S(=O)(=O)Nc3ccc(CCNC[C@H](O)c4cccnc4)cc3)cc2)no1	90	9000	2500	54	–	–	–	–	–	–
O=S(=O)(Nc1ccc(CCNC[C@H](O)c2cccnc2)cc1)c1ccc(-c2noc(CCCC3CCCCC3)n2)cc1	62	1970	660	19	–	–	–	–	–	–

More lines, in order of falling IC50 [2], values ahead:

Activation [1] [%]	IC50 [2] [nM]	IC50 [3] [nM]	EC50 [4] [nM]	half-life [5] [h]	bioavailability [6] [%]	bioavailability [8] [%]	half-life [10] [h]	Compound	ED50 (Monkey [7]) [mg/kg]	Activity (Monkey [9])
53	56000	24000	75	–	–	–	–	CCC(O)CCc1nc(-c2ccc(S(=O)(=O)Nc3ccc(CCNC[C@H](O)c4cccnc4)cc3)cc2)no1 (stereo not given in full)	–	–
49	30000	51000	120	–	–	–	–	O=C(CCc1nc(-c2ccc(S(=O)(=O)Nc3ccc(CCNC[C@H](O)c4cccnc4)cc3)cc2)no1)N1CCCC1	–	–
58	26000	1000	29	–	–	–	–	CC(C)CCCc1nc(-c2ccc(S(=O)(=O)Nc3ccc(CCNC[C@H](O)c4cccnc4)cc3)cc2)no1	–	–
75	25000	12000	66	–	–	–	–	CCC(=O)CCc1nc(-c2ccc(S(=O)(=O)Nc3ccc(CCNC[C@H](O)c4cccnc4)cc3)cc2)no1	–	–
15	10000	10000	> 100	–	–	–	–	Cc1nc(-c2ccc(S(=O)(=O)Nc3ccc(CCNC[C@H](O)c4cccnc4)cc3)cc2)no1	–	–
20	10000	44000	> 100	–	–	–	–	CC(O)CCCc1nc(-c2ccc(S(=O)(=O)Nc3ccc(CCNC[C@H](O)c4cccnc4)cc3)cc2)no1 (stereo not given in full)	–	–
70	8330	2670	13	–	–	–	–	O=S(=O)(Nc1ccc(CCNC[C@H](O)c2cccnc2)cc1)c1ccc(-c2noc(CCOC3CCCC3)n2)cc1	–	–
86	2000	1410	39	–	–	–	–	CCCCCCCc1nc(-c2ccc(S(=O)(=O)Nc3ccc(CCNC[C@H](O)c4cccnc4)cc3)cc2)no1	–	–
79	2000	1000	35	–	–	–	–	CCCCCCc1nc(-c2ccc(S(=O)(=O)Nc3ccc(CCNC[C@H](O)c4cccnc4)cc3)cc2)no1	–	–
